{"source": "patent US12594346B2", "about": "“Crosslinked hydrogel for immune checkpoint blockade delivery” (GEORGIA TECH RESEARCH CORPORATION, priority 2020, dated 2026)", "assay": "Biotin-4-fluorescein (B4F) competition assay, binding affinity of chimeric proteins", "conditions": "room temperature"}
{"substance": "commercial streptavidin: streptavidin (MP Biomedicals) [reference compound]", "values": [{"measurement": "binding behavior to biotin-4-fluorescein (fluorescence intensity, binding curve fits)", "value": "equivalent binding behavior"}]}
